Active and inactive are the calls of the source. No cut-off for these calls is given here.
What was measured:
[1] = molecular target: T1, Muscarinic acetylcholine receptor M1 (Homo sapiens, UniProt P11229); experiment: Agonist activity at human muscarinic M1 receptor; format: functional; settings: read-out: EC50
T1 sequence (P11229 whole entry): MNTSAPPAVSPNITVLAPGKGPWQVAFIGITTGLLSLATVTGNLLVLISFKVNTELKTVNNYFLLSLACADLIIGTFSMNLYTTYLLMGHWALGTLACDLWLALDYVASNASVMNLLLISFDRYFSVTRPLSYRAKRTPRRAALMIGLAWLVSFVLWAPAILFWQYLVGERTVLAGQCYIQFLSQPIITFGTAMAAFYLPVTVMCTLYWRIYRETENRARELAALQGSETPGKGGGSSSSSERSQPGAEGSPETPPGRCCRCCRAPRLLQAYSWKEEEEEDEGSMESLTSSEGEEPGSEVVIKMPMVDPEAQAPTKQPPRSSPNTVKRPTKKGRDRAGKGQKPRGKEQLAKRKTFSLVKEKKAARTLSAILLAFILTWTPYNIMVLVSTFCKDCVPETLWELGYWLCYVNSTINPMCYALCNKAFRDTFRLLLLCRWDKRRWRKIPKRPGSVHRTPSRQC

[2] = molecular target: T2, Muscarinic acetylcholine receptor M1 (Homo sapiens) (UniProt P11229); experiment: Agonist activity at human muscarinic M1 receptor at 30 uM relative to acetylcholine; format: functional
T2 sequence (whole entry): T1 sequence (P11229 whole entry)

[3] = molecular target: T2, Muscarinic acetylcholine receptor M1 (Homo sapiens); experiment: Agonist activity at human muscarinic M1 receptor expressed in TREx293 cells assessed as increase of soluble APPalpha release at 2 uM; format: functional, cell-based; settings: HEK293
[4] = molecular target: T2, Muscarinic acetylcholine receptor M1 (Homo sapiens); experiment: Agonist activity at human muscarinic M1 receptor at 30 uM by calcium mobilization assay relative to acetylcholine; format: functional
[5] = molecular target: T3, Muscarinic acetylcholine receptor M2 (Homo sapiens, UniProt P08172); experiment: Antagonist activity at human muscarinic M2 receptor by calcium mobilization assay; format: functional
T3 sequence (P08172 whole entry): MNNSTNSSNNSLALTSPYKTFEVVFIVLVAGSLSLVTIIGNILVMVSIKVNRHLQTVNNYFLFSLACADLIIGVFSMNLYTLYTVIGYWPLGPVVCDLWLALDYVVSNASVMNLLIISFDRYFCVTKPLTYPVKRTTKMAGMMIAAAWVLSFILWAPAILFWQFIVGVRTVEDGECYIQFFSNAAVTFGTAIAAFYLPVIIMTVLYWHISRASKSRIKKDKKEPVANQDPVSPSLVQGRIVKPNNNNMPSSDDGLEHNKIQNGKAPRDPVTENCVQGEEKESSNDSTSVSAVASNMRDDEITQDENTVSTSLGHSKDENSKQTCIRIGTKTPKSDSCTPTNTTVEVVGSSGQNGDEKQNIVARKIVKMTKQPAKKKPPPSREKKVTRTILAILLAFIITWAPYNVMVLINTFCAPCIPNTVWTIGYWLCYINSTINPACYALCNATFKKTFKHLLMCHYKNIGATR

[6] = molecular target: T4, Muscarinic acetylcholine receptor M2 (Homo sapiens) (UniProt P08172); experiment: Antagonist activity at human muscarinic M2 receptor assessed as remaining activity measured as percentage of maximum response generated from 80% of saturating dose of ACh at 30 uM by calcium mobilization assay; format: functional
T4 sequence (whole entry): T3 sequence (P08172 whole entry)

[7] = molecular target: T5, Muscarinic acetylcholine receptor M3 (Homo sapiens, UniProt P20309); experiment: Antagonist activity at human muscarinic M3 receptor by calcium mobilization assay
Target sequence in this assay (P20309 whole entry): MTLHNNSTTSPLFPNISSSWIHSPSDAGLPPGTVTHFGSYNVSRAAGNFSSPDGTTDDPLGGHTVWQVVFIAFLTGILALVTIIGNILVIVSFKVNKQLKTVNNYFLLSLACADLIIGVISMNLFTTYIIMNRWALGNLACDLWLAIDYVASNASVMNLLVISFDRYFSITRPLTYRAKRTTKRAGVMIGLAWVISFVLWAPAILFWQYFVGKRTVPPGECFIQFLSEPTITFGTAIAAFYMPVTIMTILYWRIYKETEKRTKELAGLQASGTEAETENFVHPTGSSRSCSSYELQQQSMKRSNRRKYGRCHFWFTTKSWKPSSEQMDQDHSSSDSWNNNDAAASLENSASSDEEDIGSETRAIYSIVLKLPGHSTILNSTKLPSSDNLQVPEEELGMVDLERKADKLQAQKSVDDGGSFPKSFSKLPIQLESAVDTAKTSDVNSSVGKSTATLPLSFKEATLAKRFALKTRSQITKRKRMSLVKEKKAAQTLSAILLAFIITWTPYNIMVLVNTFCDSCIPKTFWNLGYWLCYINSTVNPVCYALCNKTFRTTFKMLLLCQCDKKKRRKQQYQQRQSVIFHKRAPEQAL

[8] = molecular target: T5, Muscarinic acetylcholine receptor M3; experiment: Antagonist activity at human muscarinic M3 receptor assessed as remaining activity measured as percentage of maximum response generated from 80% of saturating dose of ACh at 30 uM by calcium mobilization assay; format: functional
Target sequence in this assay (P20309 whole entry, looked up): as the sequence (P20309 whole entry) above

[9] = molecular target: T6, Muscarinic acetylcholine receptor M4 (Homo sapiens, UniProt P08173); experiment: Antagonist activity at human muscarinic M4 receptor by calcium mobilization assay; format: functional
T6 sequence (P08173 whole entry): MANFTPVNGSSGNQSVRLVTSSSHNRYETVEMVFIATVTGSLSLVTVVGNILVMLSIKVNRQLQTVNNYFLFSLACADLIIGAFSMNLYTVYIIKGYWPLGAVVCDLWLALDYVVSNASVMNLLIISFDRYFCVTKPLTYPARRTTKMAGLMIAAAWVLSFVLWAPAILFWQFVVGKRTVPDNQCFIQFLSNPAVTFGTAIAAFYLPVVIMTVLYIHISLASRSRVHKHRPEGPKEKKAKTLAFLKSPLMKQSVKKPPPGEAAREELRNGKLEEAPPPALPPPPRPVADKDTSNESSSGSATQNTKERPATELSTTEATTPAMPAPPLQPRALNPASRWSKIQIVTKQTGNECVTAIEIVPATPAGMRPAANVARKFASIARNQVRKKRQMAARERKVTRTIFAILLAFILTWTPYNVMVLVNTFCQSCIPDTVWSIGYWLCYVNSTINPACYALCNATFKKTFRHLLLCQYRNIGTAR

[10] = molecular target: T7, Muscarinic acetylcholine receptor M4 (Homo sapiens) (UniProt P08173); experiment: Antagonist activity at human muscarinic M4 receptor assessed as remaining activity measured as percentage of maximum response generated from 80% of saturating dose of ACh at 30 uM by calcium mobilization assay; format: functional
T7 sequence (whole entry): T6 sequence (P08173 whole entry)

[11] = molecular target: T8, Muscarinic acetylcholine receptor M5 (Homo sapiens, UniProt P08912); experiment: Antagonist activity at human muscarinic M5 receptor by calcium mobilization assay; format: functional
T8 sequence (P08912 whole entry): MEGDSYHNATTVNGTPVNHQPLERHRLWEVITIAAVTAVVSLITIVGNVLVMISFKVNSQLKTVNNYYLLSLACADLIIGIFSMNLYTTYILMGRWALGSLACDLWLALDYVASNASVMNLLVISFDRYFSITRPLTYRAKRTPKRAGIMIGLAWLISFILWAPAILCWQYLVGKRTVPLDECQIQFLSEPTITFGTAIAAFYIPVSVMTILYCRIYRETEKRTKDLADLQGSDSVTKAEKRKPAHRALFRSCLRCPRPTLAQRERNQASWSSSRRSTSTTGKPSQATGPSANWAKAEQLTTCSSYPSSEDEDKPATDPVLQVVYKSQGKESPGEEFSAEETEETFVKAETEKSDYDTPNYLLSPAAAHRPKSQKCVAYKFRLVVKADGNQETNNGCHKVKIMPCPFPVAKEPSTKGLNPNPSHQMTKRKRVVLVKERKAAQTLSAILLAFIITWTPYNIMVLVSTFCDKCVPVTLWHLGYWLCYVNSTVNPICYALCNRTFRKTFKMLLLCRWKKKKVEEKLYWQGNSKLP

[12] = molecular target: T1, Muscarinic acetylcholine receptor M1; experiment: Agonist activity at human muscarinic M1 receptor by calcium mobilization assay; format: functional
[13] = molecular target: T3, Muscarinic acetylcholine receptor M2; experiment: Agonist activity at human muscarinic M2 receptor by calcium mobilization assay; format: functional
[14] = molecular target: T5, Muscarinic acetylcholine receptor M3; experiment: Agonist activity at human muscarinic M3 receptor by calcium mobilization assay; format: functional
Target sequence in this assay (P20309 whole entry): as the sequence (P20309 whole entry) above

[15] = molecular target: T8, Muscarinic acetylcholine receptor M5; experiment: Agonist activity at human muscarinic M5 receptor by calcium mobilization assay; format: functional
[16] = molecular target: T9, Muscarinic acetylcholine receptor M5 (Homo sapiens) (UniProt P08912); experiment: Agonist activity at human muscarinic M5 receptor at 30 uM by calcium mobilization assay relative to acetylcholine; format: functional
T9 sequence (whole entry): T8 sequence (P08912 whole entry)

[17] = Clearance in rat at 1 mg/kg, iv and 10 mg/kg, po; format: ADME, organism-based; settings: in vivo
[18] = Volume of distribution at steady state in rat at 1 mg/kg, iv and 10 mg/kg, po; format: ADME, organism-based; settings: in vivo, read-out: Vdss
[19] = Half life in rat at 1 mg/kg, iv and 10 mg/kg, po; format: ADME, organism-based; settings: in vivo
[20] = Oral bioavailability in rat at 10 mg/kg; format: ADME, organism-based; settings: in vivo
[21] = AUC in rat at 1 mg/kg, iv; format: ADME, organism-based; design: dose 1 mg/kg, route intravenous; settings: plasma
[22] = AUC in rat at 10 mg/kg, po; format: ADME, organism-based; design: dose 10 mg/kg, route oral; settings: plasma
[23] = molecular target: Muscarinic acetylcholine receptors; M1 & M2 (Homo sapiens) (UniProt P11229+P08172); experiment: Selectivity ratio of EC50 for human muscarinic M2 receptor to EC50 for human muscarinic M1 receptor
[24] = molecular target: T4, Muscarinic acetylcholine receptor M2 (Homo sapiens); experiment: Agonist activity at human muscarinic M2 receptor at 30 uM by calcium mobilization assay relative to acetylcholine; format: functional
[25] = molecular target: T5, Muscarinic acetylcholine receptor M3; experiment: Agonist activity at human muscarinic M3 receptor at 30 uM by calcium mobilization assay relative to acetylcholine; format: functional
Target sequence in this assay (P20309 whole entry, looked up): as the sequence (P20309 whole entry) above

[26] = molecular target: T6, Muscarinic acetylcholine receptor M4; experiment: Agonist activity at human muscarinic M4 receptor by calcium mobilization assay; format: functional
[27] = molecular target: T7, Muscarinic acetylcholine receptor M4 (Homo sapiens); experiment: Agonist activity at human muscarinic M4 receptor at 30 uM by calcium mobilization assay relative to acetylcholine; format: functional

| Compound | IC50 ([9]; read-out: IC50) [µM] | Activity [10] [%] | EC50 [12] [nM] | EC50 [13] | IC50 [5] | EC50 ([15]; read-out: EC50) [µM] | Activity [16] [%] | EC50 [1] [nM] | Activity [2] [%] | Activity [3] | Activity [4] [%] | EC50 [14] | EC50 [26] | IC50 [9] | further results |
| --- | --- | --- | --- | --- | --- | --- | --- | --- | --- | --- | --- | --- | --- | --- | --- |
| CCOC(=O)N1[C@@H]2CC[C@H]1C[C@@H](NCCNC(=O)c1ccccc1)C2 | 3.1 | 2 | – | – | – | – | – | 110 | 34 | Active | 37 | – | – | – | IC50 ([5]; read-out: IC50): > 10 µM; Activity [6]: 15%; IC50 [7]: > 10 µM; Activity [8]: 13%; IC50 ([11]; read-out: IC50): 4.9 µM |
| CCOC(=O)N1C2CCC1CC(N1CCC[C@@H](NC(=O)c3ccccc3C)C1)C2 (mixture of isomers) | – | – | 17 | – | – | 3.7 | 62 | 59 | 75 | Active | 59 | – | – | – | clearance [17]: 189 mL/min/kg; Vd [18]: 11.8 L/kg; half-life [19]: 46 min; bioavailability [20]: 70%; AUC [21]: 92.2 ng·h/mL; AUC [22]: 639 ng·h/mL; Ratio EC50 [23]: 100; EC50 ([13]; read-out: EC50): 1800 nM; Activity [24]: 66%; EC50 ([14]; read-out: EC50): > 10 µM; Activity [25]: 36%; EC50 ([26]; read-out: EC50): > 10 µM; Activity [27]: 28% |
| CCOC(=O)N1[C@@H]2CC[C@H]1C[C@H](NCCNC(=O)c1ccccc1)C2 | – | – | – | Not Active | Not Active | – | – | 970 | 49 | Active | 57 | Not Active | Not Active | Not Active | EC50 [15]: Not Active; IC50 [11]: Not Active |
| CCOC(=O)N1C2CCC1CC(N1CCC[C@@H](NC(=O)c3ccccc3)C1)C2 (mixture of isomers) | – | – | 350 | – | – | > 10 | 21 | 840 | 75 | Active | 65 | Not Active | Not Active | Not Active | EC50 ([13]; read-out: EC50): > 10000 nM; Activity [24]: 27% |
| CCOC(=O)N1C[C@H]2CC[C@@H](C1)[C@H]2NCCNC(=O)c1ccccc1 | > 10 | 48 | 18 | Not Active | Not Active | 2.8 | 31 | 92 | 53 | Active | 46 | – | – | – | IC50 [7]: > 10 µM; Activity [8]: 45% |

More lines, main results first:

| IC50 ([9]; read-out: IC50) [µM] | Activity [10] [%] | EC50 [12] [nM] | EC50 [13] | IC50 [5] | EC50 ([15]; read-out: EC50) [µM] | Activity [16] [%] | Compound | EC50 [1] [nM] | Activity [2] [%] | Activity [3] | Activity [4] [%] | EC50 [14] | EC50 [26] | IC50 [9] | further results |
| --- | --- | --- | --- | --- | --- | --- | --- | --- | --- | --- | --- | --- | --- | --- | --- |
| > 10 | 40 | 96 | Not Active | Not Active | 4.2 | 22 | CCOC(=O)N1C[C@H]2CC[C@@H](C1)[C@H]2NCCNC(=O)c1cccc(Cl)c1 | 47 | 52 | – | 58 | Not Active | – | – | – |
| > 10 | 26 | 41 | – | – | 1 | 28 | CCCCC1CCN(CCCN2C(=O)COc3cc(F)ccc32)CC1 | – | – | – | 81 | – | – | – | EC50 ([14]; read-out: EC50): 5.9 µM; IC50 ([5]; read-out: IC50): > 10 µM; Activity [6]: 30%; Activity [25]: 19% |
| – | – | 2600 | Not Active | Not Active | – | – | CCOC(=O)N1CCC(NCCNC(=O)c2ccccc2C)CC1 | 1600 | 35 | Active | 34 | Not Active | Not Active | Not Active | EC50 [15]: Not Active; IC50 [11]: Not Active |

Source: ChEMBL document CHEMBL2021911 (Bioorg Med Chem Lett, 2012)
